{"source": "ChEMBL document CHEMBL5653615", "about": "(J Biol Chem, 2013)", "key": {"[1]": {"target": "T1, Serine/threonine-protein kinase 3 (Homo sapiens) (UniProt Q13188)", "T1 sequence (whole entry)": "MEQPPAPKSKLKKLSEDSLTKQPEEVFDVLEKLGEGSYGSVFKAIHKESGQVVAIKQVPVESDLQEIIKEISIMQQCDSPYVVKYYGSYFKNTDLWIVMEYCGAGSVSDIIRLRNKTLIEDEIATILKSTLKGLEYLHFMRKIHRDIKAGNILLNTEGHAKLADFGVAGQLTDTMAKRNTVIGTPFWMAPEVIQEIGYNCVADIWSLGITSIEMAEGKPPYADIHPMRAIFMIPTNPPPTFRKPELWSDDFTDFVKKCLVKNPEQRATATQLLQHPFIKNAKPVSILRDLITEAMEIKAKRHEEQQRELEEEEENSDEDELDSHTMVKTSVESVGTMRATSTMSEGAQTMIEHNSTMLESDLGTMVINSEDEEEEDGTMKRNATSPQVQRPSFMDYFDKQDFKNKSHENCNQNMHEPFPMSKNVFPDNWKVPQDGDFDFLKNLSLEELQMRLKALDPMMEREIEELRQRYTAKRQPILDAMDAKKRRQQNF", "experiment": "Inhibition of human STK3 at 500 nM by HotSpot assay relative to control"}, "[2]": {"target": "Serine/threonine-protein kinase WNK3 (Homo sapiens) (UniProt Q9BYP7)", "experiment": "Inhibition of human WNK3 at 500 nM by HotSpot assay relative to control"}, "[3]": {"target": "Serine/threonine-protein kinase MARK2 (Homo sapiens) (UniProt Q7KZI7)", "sequence (Q7KZI7 whole entry)": "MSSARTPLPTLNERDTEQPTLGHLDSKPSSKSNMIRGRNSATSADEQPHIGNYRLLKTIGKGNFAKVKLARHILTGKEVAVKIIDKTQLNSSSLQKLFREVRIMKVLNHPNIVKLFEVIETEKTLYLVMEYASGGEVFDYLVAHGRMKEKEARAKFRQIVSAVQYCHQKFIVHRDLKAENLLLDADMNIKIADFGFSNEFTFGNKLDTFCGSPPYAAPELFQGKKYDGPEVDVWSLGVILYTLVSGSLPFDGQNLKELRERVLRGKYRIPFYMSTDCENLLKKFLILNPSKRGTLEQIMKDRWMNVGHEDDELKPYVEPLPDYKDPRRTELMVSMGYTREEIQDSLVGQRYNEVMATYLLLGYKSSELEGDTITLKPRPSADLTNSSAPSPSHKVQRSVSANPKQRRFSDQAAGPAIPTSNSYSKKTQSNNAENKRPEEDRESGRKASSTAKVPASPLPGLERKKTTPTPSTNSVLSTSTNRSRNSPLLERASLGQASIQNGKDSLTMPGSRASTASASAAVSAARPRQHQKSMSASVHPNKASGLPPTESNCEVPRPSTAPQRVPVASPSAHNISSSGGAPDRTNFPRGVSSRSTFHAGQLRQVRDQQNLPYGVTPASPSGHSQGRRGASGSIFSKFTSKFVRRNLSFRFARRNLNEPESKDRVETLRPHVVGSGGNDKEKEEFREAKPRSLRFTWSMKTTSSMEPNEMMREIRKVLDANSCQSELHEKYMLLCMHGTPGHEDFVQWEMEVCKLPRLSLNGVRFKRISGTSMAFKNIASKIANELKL", "experiment": "Inhibition of human PAR-1Ba at 500 nM by HotSpot assay relative to control"}, "[4]": {"target": "Serine/threonine-protein kinase PAK 2 (Homo sapiens) (UniProt Q13177)", "sequence (Q13177 whole entry)": "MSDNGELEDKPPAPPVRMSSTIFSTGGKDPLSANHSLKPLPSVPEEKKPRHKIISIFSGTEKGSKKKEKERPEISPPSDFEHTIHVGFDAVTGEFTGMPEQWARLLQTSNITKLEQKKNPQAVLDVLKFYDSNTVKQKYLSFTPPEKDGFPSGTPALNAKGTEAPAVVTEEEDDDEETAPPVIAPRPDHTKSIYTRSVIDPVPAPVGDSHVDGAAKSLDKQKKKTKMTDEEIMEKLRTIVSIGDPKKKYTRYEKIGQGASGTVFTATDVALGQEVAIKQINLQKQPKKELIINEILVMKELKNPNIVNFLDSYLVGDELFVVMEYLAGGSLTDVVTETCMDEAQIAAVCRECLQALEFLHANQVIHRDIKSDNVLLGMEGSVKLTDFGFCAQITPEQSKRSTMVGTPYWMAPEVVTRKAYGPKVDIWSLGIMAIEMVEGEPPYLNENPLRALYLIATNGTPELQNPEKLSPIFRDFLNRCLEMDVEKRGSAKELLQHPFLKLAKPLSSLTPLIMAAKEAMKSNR", "experiment": "Inhibition of human PAK2 at 500 nM by HotSpot assay relative to control"}, "[5]": {"target": "T2, NUAK family SNF1-like kinase 2 (Homo sapiens) (UniProt Q9H093)", "T2 sequence (whole entry)": "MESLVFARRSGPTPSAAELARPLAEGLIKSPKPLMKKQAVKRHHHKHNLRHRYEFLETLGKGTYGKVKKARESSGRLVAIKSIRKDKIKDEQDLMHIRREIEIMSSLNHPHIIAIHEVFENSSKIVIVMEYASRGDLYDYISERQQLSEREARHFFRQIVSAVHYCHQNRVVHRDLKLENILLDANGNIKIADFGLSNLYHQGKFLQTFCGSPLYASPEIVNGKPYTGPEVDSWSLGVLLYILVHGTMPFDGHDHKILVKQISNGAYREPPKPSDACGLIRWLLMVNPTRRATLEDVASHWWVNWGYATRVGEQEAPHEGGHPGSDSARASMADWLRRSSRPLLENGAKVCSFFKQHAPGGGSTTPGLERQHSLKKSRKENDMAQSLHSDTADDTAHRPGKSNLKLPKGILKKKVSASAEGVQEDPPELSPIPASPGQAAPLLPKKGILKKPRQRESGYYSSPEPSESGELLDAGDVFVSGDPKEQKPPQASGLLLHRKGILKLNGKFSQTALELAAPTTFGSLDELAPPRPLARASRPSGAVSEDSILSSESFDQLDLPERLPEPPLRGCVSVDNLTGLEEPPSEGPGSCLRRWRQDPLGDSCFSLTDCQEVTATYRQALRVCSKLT", "experiment": "Inhibition of human NUAK2 at 500 nM by HotSpot assay relative to control"}, "[6]": {"target": "Serine/threonine-protein kinase 26 (Homo sapiens) (UniProt Q9P289)", "sequence (Q9P289 2-416 limits assumed)": "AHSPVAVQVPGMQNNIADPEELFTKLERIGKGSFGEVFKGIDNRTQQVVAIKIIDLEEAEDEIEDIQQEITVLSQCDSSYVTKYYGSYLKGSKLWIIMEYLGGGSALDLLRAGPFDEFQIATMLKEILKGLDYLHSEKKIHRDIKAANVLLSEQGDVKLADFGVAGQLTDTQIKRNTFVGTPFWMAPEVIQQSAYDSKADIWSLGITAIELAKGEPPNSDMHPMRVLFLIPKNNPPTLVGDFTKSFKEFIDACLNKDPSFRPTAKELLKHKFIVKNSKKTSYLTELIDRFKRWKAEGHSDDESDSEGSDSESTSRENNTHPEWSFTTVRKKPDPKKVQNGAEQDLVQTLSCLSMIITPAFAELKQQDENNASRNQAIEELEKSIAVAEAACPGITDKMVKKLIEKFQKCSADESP", "experiment": "Inhibition of human MST4 at 500 nM by HotSpot assay relative to control"}, "[7]": {"target": "Serine/threonine-protein kinase B-raf (Homo sapiens) (UniProt P15056)", "sequence (P15056 whole entry)": "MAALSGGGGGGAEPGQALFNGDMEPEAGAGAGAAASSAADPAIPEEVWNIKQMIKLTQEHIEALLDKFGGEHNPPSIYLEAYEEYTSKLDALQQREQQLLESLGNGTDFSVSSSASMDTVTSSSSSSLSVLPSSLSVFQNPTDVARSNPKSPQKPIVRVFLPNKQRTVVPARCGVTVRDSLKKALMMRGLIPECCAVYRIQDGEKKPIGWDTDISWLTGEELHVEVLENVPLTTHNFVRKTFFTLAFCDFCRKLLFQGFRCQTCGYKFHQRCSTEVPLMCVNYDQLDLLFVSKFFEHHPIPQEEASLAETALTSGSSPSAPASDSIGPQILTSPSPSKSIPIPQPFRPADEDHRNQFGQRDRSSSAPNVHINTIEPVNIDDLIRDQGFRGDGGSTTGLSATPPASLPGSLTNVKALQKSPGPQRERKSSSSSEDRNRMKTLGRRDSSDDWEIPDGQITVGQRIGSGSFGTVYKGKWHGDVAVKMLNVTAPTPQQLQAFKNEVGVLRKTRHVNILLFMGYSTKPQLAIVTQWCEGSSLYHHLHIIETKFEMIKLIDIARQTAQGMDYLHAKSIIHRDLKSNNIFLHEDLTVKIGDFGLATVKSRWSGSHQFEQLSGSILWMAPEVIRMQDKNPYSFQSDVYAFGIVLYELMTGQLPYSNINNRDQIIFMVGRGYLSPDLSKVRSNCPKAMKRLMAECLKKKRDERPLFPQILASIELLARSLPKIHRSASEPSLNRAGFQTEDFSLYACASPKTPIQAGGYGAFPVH", "experiment": "Inhibition of human BRAF at 500 nM by HotSpot assay relative to control"}, "[8]": {"target": "Death-associated protein kinase 2 (Homo sapiens) (UniProt Q9UIK4)", "experiment": "Inhibition of human DAPK2 at 500 nM by HotSpot assay relative to control"}, "[9]": {"target": "Ribosomal protein S6 kinase beta-2 (Homo sapiens) (UniProt Q9UBS0)", "sequence (Q9UBS0 whole entry)": "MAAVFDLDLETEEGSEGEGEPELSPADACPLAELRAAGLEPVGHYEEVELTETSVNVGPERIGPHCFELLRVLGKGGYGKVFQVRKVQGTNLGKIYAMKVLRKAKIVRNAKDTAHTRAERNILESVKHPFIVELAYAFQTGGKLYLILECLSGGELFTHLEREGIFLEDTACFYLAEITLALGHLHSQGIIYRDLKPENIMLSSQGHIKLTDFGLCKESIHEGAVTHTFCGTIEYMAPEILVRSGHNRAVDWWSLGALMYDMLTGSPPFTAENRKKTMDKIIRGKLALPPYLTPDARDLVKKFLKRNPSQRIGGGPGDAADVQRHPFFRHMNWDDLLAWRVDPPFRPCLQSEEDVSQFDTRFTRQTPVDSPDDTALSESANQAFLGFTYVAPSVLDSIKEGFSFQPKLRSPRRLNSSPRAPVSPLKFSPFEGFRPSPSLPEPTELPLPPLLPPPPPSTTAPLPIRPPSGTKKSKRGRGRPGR", "experiment": "Inhibition of human RPS6KB2 at 500 nM by HotSpot assay relative to control"}, "[10]": {"target": "Ribosomal protein S6 kinase alpha-2 (Homo sapiens) (UniProt Q15349)", "experiment": "Inhibition of human RSK3 at 500 nM by HotSpot assay relative to control"}, "[11]": {"target": "Mitogen-activated protein kinase kinase kinase 8 (Homo sapiens) (UniProt P41279)", "experiment": "Inhibition of human COT1 at 500 nM by HotSpot assay relative to control"}, "[12]": {"target": "T3, Serine/threonine-protein kinase VRK1 (Homo sapiens) (UniProt Q99986)", "T3 sequence (whole entry)": "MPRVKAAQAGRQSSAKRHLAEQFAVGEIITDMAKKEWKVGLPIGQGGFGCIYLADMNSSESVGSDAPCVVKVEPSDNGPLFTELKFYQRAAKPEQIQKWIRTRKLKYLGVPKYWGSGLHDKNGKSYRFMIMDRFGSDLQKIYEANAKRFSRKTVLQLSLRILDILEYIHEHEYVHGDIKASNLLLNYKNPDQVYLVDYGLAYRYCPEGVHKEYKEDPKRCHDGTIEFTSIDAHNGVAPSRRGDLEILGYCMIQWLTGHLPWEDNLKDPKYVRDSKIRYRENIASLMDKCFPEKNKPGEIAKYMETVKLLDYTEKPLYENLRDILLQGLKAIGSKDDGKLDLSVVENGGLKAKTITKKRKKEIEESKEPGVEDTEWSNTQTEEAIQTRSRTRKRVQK", "experiment": "Inhibition of human VRK1 at 500 nM by HotSpot assay relative to control"}, "[13]": {"target": "G protein-coupled receptor kinase 6 (Homo sapiens) (UniProt P43250)", "experiment": "Inhibition of human GRK6 at 500 nM by HotSpot assay relative to control"}, "[14]": {"target": "T4, Testis-specific serine/threonine-protein kinase 2 (Homo sapiens) (UniProt Q96PF2)", "T4 sequence (whole entry)": "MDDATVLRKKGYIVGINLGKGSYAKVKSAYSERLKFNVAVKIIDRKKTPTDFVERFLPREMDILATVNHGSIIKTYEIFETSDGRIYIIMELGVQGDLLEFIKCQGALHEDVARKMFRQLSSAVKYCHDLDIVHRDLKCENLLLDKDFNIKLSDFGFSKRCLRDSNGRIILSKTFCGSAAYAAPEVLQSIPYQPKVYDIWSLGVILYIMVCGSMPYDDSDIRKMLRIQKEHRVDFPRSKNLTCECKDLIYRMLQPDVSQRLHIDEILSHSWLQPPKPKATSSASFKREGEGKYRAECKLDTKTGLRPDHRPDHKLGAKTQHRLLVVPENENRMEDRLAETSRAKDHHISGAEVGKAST", "experiment": "Inhibition of human TSSK2 at 500 nM by HotSpot assay relative to control"}, "[15]": {"target": "Insulin receptor-related protein (Homo sapiens) (UniProt P14616)", "sequence (P14616 27-742 limits assumed)": "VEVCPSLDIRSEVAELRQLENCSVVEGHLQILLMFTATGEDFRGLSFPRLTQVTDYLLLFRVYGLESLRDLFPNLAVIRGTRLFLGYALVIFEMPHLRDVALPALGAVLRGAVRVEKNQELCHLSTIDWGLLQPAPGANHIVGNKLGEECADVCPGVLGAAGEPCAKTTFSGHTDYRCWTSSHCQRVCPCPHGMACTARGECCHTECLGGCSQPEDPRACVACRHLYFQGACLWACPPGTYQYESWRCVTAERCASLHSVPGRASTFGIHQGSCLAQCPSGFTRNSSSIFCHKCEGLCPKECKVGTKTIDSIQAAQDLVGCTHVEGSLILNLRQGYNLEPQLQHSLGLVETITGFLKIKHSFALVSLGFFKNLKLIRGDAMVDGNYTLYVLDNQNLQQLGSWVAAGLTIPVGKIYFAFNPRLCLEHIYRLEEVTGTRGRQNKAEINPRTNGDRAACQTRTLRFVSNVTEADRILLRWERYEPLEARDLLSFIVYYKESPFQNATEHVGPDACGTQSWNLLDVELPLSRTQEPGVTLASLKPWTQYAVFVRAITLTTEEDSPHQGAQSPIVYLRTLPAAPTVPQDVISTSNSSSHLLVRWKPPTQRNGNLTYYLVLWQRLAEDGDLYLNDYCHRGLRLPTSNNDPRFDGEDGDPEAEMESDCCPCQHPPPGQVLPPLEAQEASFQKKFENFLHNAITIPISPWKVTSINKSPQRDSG", "sequence (P14616 747-1297 limits assumed)": "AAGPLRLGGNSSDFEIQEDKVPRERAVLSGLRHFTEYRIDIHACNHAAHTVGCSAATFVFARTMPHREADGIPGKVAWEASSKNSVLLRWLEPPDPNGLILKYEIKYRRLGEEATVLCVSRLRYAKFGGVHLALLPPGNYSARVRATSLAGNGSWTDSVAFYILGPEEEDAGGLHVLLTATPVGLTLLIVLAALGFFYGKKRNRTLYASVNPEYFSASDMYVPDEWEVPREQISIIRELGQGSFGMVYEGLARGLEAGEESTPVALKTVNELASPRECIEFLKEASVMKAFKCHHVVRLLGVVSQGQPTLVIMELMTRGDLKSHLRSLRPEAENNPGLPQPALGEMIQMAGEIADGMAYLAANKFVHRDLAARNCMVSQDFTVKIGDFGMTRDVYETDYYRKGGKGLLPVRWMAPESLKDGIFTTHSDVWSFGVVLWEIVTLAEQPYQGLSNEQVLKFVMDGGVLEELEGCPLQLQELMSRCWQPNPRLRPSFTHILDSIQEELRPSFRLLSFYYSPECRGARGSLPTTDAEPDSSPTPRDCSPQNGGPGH", "experiment": "Inhibition of human IRR at 500 nM by HotSpot assay relative to control"}, "[16]": {"target": "Calcium/calmodulin-dependent protein kinase type II subunit delta (Homo sapiens) (UniProt Q13557)", "sequence (Q13557 whole entry)": "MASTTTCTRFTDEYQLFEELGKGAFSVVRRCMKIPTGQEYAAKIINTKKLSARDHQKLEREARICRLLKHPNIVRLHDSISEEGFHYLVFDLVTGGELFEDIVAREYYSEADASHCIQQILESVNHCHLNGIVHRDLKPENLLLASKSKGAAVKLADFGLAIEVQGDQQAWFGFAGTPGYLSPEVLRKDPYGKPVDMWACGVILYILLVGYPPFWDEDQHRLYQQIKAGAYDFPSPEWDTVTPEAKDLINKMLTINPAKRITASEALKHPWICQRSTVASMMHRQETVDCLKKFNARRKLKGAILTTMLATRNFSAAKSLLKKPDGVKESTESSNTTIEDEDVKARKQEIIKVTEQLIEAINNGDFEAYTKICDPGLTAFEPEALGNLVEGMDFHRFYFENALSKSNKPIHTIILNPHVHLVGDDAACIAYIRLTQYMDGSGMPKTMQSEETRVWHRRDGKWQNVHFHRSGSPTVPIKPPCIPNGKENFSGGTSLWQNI", "experiment": "Inhibition of human CAMK2d at 500 nM by HotSpot assay relative to control"}}, "data": [{"smiles": "Oc1n[nH]c2nnc(-c3c(-c4ccccc4)nn4ccccc34)cc12", "values": [{"measurement": "inhibition", "setting": "[1]", "result": 0.75, "unit": "%"}, {"measurement": "inhibition", "setting": "[2]", "result": 0.29, "unit": "%"}, {"measurement": "inhibition", "setting": "[3]", "result": -4.11, "unit": "%"}, {"measurement": "inhibition", "setting": "[4]", "result": -1.47, "unit": "%"}, {"measurement": "inhibition", "setting": "[5]", "result": -6.46, "unit": "%"}, {"measurement": "inhibition", "setting": "[6]", "result": 3.66, "unit": "%"}, {"measurement": "inhibition", "setting": "[7]", "result": 3.81, "unit": "%"}, {"measurement": "inhibition", "setting": "[8]", "result": -0.84, "unit": "%"}, {"measurement": "inhibition", "setting": "[9]", "result": -8.15, "unit": "%"}, {"measurement": "inhibition", "setting": "[10]", "result": -4.14, "unit": "%"}, {"measurement": "inhibition", "setting": "[11]", "result": 4.58, "unit": "%"}, {"measurement": "inhibition", "setting": "[12]", "result": 0.57, "unit": "%"}, {"measurement": "inhibition", "setting": "[13]", "result": 1.01, "unit": "%"}, {"measurement": "inhibition", "setting": "[14]", "result": -1.61, "unit": "%"}, {"measurement": "inhibition", "setting": "[15]", "result": 13.8, "unit": "%"}, {"measurement": "inhibition", "setting": "[16]", "result": 2.55, "unit": "%"}]}, {"smiles": "Nc1n[nH]c2nnc(-c3c(-c4ccccc4)nn4ccccc34)cc12", "values": [{"measurement": "inhibition", "setting": "[1]", "result": -2.01, "unit": "%"}, {"measurement": "inhibition", "setting": "[2]", "result": -1.28, "unit": "%"}, {"measurement": "inhibition", "setting": "[3]", "result": -4.05, "unit": "%"}, {"measurement": "inhibition", "setting": "[4]", "result": -0.21, "unit": "%"}, {"measurement": "inhibition", "setting": "[5]", "result": 12.7, "unit": "%"}, {"measurement": "inhibition", "setting": "[6]", "result": 24.1, "unit": "%"}, {"measurement": "inhibition", "setting": "[7]", "result": 4.35, "unit": "%"}, {"measurement": "inhibition", "setting": "[8]", "result": -2.75, "unit": "%"}, {"measurement": "inhibition", "setting": "[9]", "result": -4.11, "unit": "%"}, {"measurement": "inhibition", "setting": "[10]", "result": 3.51, "unit": "%"}, {"measurement": "inhibition", "setting": "[11]", "result": 4.98, "unit": "%"}, {"measurement": "inhibition", "setting": "[12]", "result": 7.83, "unit": "%"}, {"measurement": "inhibition", "setting": "[13]", "result": 0.69, "unit": "%"}, {"measurement": "inhibition", "setting": "[14]", "result": -4.17, "unit": "%"}, {"measurement": "inhibition", "setting": "[15]", "result": 4.29, "unit": "%"}, {"measurement": "inhibition", "setting": "[16]", "result": 3.52, "unit": "%"}]}]}
